The values that follow come from patent publication US7754739B2, “Modulators of CFTR” (Vertex Pharmaceuticals Incorporated, priority 2007, dated 2010).

The target of the assay is T1, ΔF508-CFTR (Homo sapiens, UniProt P13569, DEL508-508).
T1 construct: expressed in transfected cells; host or cells: NIH3T3 mouse fibroblasts, stably expressing
Description: Membrane potential optical methods for assaying ΔF508-CFTR modulation properties of compounds. The conditions noted are these: NIH3T3 cells expressing ΔF508-CFTR. It is filed as cell-based. The source says: Assays for Detecting and Measuring ΔF508-CFTR Correction Properties of Compounds
Membrane potential optical methods for assaying ΔF508-CFTR modulation properties of compounds
The optical membrane potential assay utilized voltage-sensitive FRET sensors described by Gonzalez and Tsien (See, Gonzalez, J. E. and R. Y. Tsien (1995) “Voltage sensing by fluorescence resonance energy transfer in single cells” Biophys J 69(4): 1272-80, and Gonzalez, J. E. and R. Y. Tsien (1997) “Improved indicators of cell membrane potential that use fluorescence resonance energy transfer” Chem Biol 4(4): 269-77) in combination with instrumentation for measuring fluorescence changes such as the Voltage/Ion Probe Reader (VIPR) (See, Gonzalez, J. E., K. Oades, et al. (1999) “Cell-based assays and instrumentation for screening ion-channel targets” Drug Discov Today 4(9): 431-439).
These voltage sensitive assays are based on the change in fluorescence resonant energy transfer (FRET) between the membrane-soluble, voltage-sensitive dye, DiSBAC2(3), and a fluorescent phospholipid, CC2-DMPE, which is attached to the outer leaflet of the plasma membrane and acts as a FRET donor. Changes in membrane potential (Vm) cause the negatively charged DiSBAC2(3) to redistribute across the plasma membrane and the amount of energy transfer from CC2-DMPE changes accordingly. The changes in fluorescence emission were monitored using VIPR™ II, which is an integrated liquid handler and fluorescent detector designed to conduct cell-based screens in 96- or 384-well microtiter plates.
1. Identification of Correction Compounds
To identify small molecules that correct the trafficking defect associated with EF508-CFTR; a single-addition HTS assay format was developed. The cells were incubated in serum-free medium for 16 hrs at 37° C. in the presence or absence (negative control) of test compound. As a positive control, cells plated in 384-well plates were incubated for 16 hrs at 27° C. to “temperature-correct” ΔF508-CFTR. The cells were subsequently rinsed 3× with Krebs Ringers solution and loaded with the voltage-sensitive dyes. To activate ΔF508-CFTR, 10 μM forskolin and the CFTR potentiator, genistein (20 μM), were added along with Cl^−-free medium to each well. The addition of Cl^−-free medium promoted Cl^−-efflux in response to ΔF508-CFTR activation and the resulting membrane depolarization was optically monitored using the FRET-based voltage-sensor dyes.
2. […]
To identify potentiators of ΔF508-CFTR, a double-addition HTS assay format was developed. […] The extracellular Cl^−-concentration following both additions was 28 mM, which promoted Cl^−-efflux in response to ΔF508-CFTR activation and the resulting membrane depolarization was optically monitored using the FRET-based voltage-sensor dyes. […]

T1 sequence (P13569 with tags, fused parts or gaps DEL508-508): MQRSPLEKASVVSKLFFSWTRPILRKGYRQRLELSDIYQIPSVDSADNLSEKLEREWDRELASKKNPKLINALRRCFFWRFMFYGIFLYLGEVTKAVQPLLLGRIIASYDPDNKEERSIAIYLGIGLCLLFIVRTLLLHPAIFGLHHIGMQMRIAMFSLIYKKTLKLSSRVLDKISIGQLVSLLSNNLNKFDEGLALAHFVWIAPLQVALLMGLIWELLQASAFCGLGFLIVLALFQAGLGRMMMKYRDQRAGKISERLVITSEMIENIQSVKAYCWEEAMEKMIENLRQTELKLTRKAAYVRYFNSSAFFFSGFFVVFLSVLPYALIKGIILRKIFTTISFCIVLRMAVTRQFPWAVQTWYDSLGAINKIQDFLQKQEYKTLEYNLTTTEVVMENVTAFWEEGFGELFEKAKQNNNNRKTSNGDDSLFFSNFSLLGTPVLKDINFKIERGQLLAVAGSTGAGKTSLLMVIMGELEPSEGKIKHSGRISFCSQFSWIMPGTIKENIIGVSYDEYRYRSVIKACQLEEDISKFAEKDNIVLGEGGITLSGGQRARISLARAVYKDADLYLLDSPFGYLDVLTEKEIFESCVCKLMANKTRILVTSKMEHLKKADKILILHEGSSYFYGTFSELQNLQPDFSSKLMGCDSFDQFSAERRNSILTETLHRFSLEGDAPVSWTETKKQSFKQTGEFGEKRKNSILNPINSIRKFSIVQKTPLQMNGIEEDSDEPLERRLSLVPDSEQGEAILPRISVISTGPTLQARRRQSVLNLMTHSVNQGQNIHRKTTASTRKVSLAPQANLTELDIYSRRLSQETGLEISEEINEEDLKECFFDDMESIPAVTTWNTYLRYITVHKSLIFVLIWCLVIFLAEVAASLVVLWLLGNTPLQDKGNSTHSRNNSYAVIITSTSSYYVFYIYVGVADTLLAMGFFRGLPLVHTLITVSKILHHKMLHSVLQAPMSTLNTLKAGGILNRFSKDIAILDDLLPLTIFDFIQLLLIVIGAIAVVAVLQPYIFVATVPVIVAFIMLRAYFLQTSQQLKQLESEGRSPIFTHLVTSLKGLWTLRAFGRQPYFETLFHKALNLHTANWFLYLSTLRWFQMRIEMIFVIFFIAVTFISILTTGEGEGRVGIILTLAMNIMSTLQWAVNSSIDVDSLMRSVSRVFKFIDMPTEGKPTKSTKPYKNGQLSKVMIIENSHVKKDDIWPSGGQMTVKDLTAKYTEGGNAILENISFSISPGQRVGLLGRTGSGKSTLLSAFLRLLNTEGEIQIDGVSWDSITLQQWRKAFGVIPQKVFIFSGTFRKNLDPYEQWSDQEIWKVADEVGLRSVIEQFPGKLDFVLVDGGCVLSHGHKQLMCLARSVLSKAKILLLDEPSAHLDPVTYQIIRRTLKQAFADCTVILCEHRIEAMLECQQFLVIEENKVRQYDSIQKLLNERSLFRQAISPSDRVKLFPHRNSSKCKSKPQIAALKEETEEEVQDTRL

As for `Cc1ccc(NC(=O)C2(c3ccc4c(c3)CCO4)CC2)nc1-c1cccc(C(=O)O)c1` [compound 2], the half-maximal effective concentration (EC50) was at most 2000 nM and the “Percent Efficacy” value was “+++ (100.0% < +++)”.
The like results for `COc1ccc(C2(C(=O)Nc3ccc(C)c(-c4cccc(C(=O)O)c4)n3)CC2)cc1` [compound 1] were, in that order, at most 2000 nM and “+++ (100.0% < +++)”.
